From patent publication US10035791B2, “Bicyclic compound and pharmaceutical composition thereof for treating stroke and use thereof” (China Medical University, priority 2016, dated 2018)
“Also recorded” adds a separate entry of the source.

Experiments:
[1] = system: primary cortical cultures (PCCs); test: Lactate dehydrogenase (LDH) release rate analysis, H2O2-treated PCCs; format: cell-based, C57BL/6 mice
Description: H2O2 can cause an oxidative damage to cells and a destruction of the cell membrane, and consequently the LDH is released into medium. For that reason, the lower rate of the LDH released into the culture medium is represented the fewer damaged cells and better cell protection effect of sample.
Test cells are primary cortical cultures (PCCs) in this example. The PCCs are prepared from cerebral cortexes of gestation day 17 embryos from C57BL/6 mice as described previously (Cell Death Differ 2008; 15: 143-151). The PCCs are maintained under serum-free conditions in neurobasal medium (Invitrogen), supplemented with B-27 supplement (2%; invitrogen), glutamine (0.5 mM; Sigma Aldrich), glutamate ([…]; Sigma Aldrich), penicillin (100 U/ml) and streptomycin ([…]; Invitrogen). At 4 days in vitro, half of the medium is removed and replaced with fresh medium without glutamate. The cultures are maintained in a humidified incubator at 37° C. with 5% CO2. At 7 days in vitro, the PCCs are used for experimentation.
The PCCs are seeded in a 24-well plate and are allowed to stand for 20 minutes. […] The PCCs are maintained at 37° C. in a humidified atmosphere of 5% CO2 for 24 hours. After incubation, the culture medium is collected and washed twice with phosphate buffered saline (PBS), and then are analyzed the LDH activity in the culture medium by using LDH Cytotoxicity Detection Kit (TaKaRa Bio Laboratories, Japan) to calculate the percentage cytotoxicity, which is represented the situation of cells damage, of the PCCs. The lower percentage cytotoxicity presents the lower LDH activity detected and less severe of cells damages, which indicates the better cell protection effect of the sample. The LDH activity is measured by a colorimetry. After a reaction between enzyme and particular substrate, an absorbance of the reaction solution and the LDH activity is linearly correlated. The LDH activity (U/10^−3 L) is calculated by a reduced optical density slope at a wavelength of 340 nm within three minutes. A lactate dehydrogenase activity unit is defined as a catalytic consumption of […] NADH per minute.

[2] = system: ischemic rats; test: Volume of the infarction after cerebral ischemia, TTC staining; format: in vivo, Sprague-Dawley (SD) rats; settings: 0.1, 1, 10 mg/kg intraperitoneal, 2 days after treatment, vs control, in particular 1 mg/kg, FIGS. 17A, 17B
Text: The ischemic rats are induced by an ischemia-reperfusion model to simulate transient focal cerebral ischemia in rats. Test animals are male Sprague-Dawley (SD) rats weighing 250-300 g. The rats are anesthetized with chloral hydrate (0.4 g/kg IP) and subjected to cerebral ischemia. The ischemia-reperfusion model is induced by ligations of bilateral common carotid arteries (CCAs) and a right middle cerebral artery (MCA). The bilateral CCAs are clamped with non-traumatic arterial clips, and the right MCA is ligated with an 10-0 nylon suture. After 90 minutes ischemia, the suture on the MCA and the arterial clips on CCAs are removed to allow reperfusion. Core body temperature is monitored with a thermistor probe (Hewlett-Packard Model 21090A probe, Hewlett-Packard Company, Andover, Mass.), and maintained at 37° C. with a heating pad during anesthesia. After recovery from anesthesia, rat body temperature is maintained at 37° C. with a heat lamp.
In addition, the ischemic rats are intraperitoneal injected with different dosages of the Compound 1 (0.1 mg/kg, 1 mg/kg and 10 mg/kg). The ischemic rats intraperitoneal injected with vehicle are used as the control. At 2 days after the Compound 1 treatment, the ischemic rats are intracardially perfused with PBS. The brain tissues are removed, immersed in cold PBS, and sliced into 2-mm-thick sections. […]

[3] = system: NSCs; test: Neurosphere self-renewal assay of the NSCs; format: cell-based, mice; settings: 0.1, 1, 10 μM for 16 hours vs control group, especially 1 μM
Description: To determine whether the HIF-1α-Bmi-1 pathway regulates the proliferation of the NSCs a neurosphere self-renewal assay is performed in this example. In the neurosphere self-renewal assay, the NSCs are cultured in non-adherent cultures to form neurospheres for examining the effect of the HIF-1α-Bmi-1 pathway on the self-renewal of the neurosphere.
To prepare the NSCs, after removal of meninges, subventricular zones (SVZ) of lateral ventricles from adult mice brain (4 week-of-age) are aseptically isolated and dissociated as previously described (J Cell Sci 2006; 119, 4467-4474). All steps are operated under sterile conditions. Then, neurosphere culture are prepared in neurobasal (NB) medium (Gibco BRL) supplemented with 2% of B27 (Gibco BRL), 2 mM of L-glutamine (PAN Biotech), 100 U/ml of penicillin/0.1 mg/L of streptomycin (Gibco BRL). For maintenance and expansion of the cultures, the NB/B27 is further supplemented with 2 μg/mL of heparin (Sigma), 20 ng/mL of FGF-2 (R&D Systems) and 20 ng/mL of EGF (R&D Systems). Neurosphere cultures are maintained at 37° C. in a humidified incubator with 5% CO2. For clonal/low density cultures, primary neurospheres grown at high density are dissociated into a single cell suspension and reseeded into 96-well plates at 100 cells per ml of media and the number of newly formed neurospheres is counted after 7 days. In addition, the Bmi-1 expressions, SOX2 expressions, Nestin expressions, Musashi-1 expressions, BrdU expressions and ki-67 expressions of the newly formed neurospheres are determined by the immunofluorescence staining.
In another example, the NSCs are treated with different dosages of the Compound 1 (0.1 μM, 1 μM and 10 μM) for 16 hours, wherein the NSCs treated with 1 μM of the Compound 1 are further transduced with the LV-Bmi-1-sh or LV-HIF-1α-sh respectively. Then the NSCs are cultured in the neurosphere culture to observe the frequency of the neurosphere formation, the self-renewal potential of the NSCs and the neurosphere size. […]

## COC(=O)C1=CO[C@@H](O)[C@@H]2C(COC(=O)[C@@H](N)Cc3ccccc3)=CC[C@H]12 [Compound 1]
[1]; compound 0.1 μM, FIG. 1G
  LDH release rate of the PCCs treated with H2O2: 30%
[1]; compound 100 μM, 10^-4 mol/L H2O2, 24 hours, FIG. 1F
  LDH release rate of the PCCs treated with H2O2: lower LDH release rate; also recorded: reduces most LDH release rate
[1]; tested 0.1, 1, 10 and 100 μM, FIG. 1G
  concentration at which the LDH release rate of the PCCs is reduced most: 100 µM
[2]
  volume of the infarction (TTC staining): much smaller
[3]; FIG. 11F
  frequency of the neurosphere formation: significantly higher frequency of the neurosphere formation
[3]; FIG. 11G
  self-renewal potential of the NSCs: more self-renewal potential
[3]; FIG. 11H
  neurosphere size: larger neurosphere size
